Measured values from patent US4694004A, “Semicarbazide derivatives, processes for preparation thereof and pharmaceutical composition comprising the same” (Fujisawa Pharmaceutical Co., Ltd., priority 1984, dated 1987).

Experiments:
[1] = tested on: Paw edema induced by carrageenin; assay: Carrageenin Foot Edema (antiinflammatory activity); assay type: in vivo, male Sprague-Dawley rats; conditions: Dose: 32 mg/kg, orally 60 minutes before phlogogen; edema volume 3 hours after 1% carrageenin; rats
Procedure: (1) Carrageenin Foot Edema
Five male Sprague-Dawley rats weighing about 200 g were used per group.
Paw edema was induced by subplantar injection of 1% carrageenin (0.1 ml/rat) into the right hind paw. The test drug was suspended in 0.5% methylcellulose and administered orally 60 minutes before phlogogen. Paw volume was measured with plethysmometer (Ugo Bazil Co., Ltd.) by water displacement immersing the paw to the lateral malleolus. The difference of paw volume before and 3 hours after the phlogogen was designated as edema volume.
The data were analyzed statistically by student's t-test.

[2] = tested on: writhing syndrome induced by acetic acid; assay: Acetic Acid Induced Writhing (analgesic activity); assay type: in vivo, male ddY strain mice; conditions: Dose: 32 mg/kg, orally 60 minutes before 0.6% acetic acid i.p.; observed from 3 to 13 minutes; mice
Procedure: (1) Acetic Acid Induced Writhing
Ten male ddY strain mice were used per group. To estimate the frequency of writhing syndrome, the animals were observed from 3 to 13 minutes after an intraperitoneal injection of 0.2 ml/10 g of 0.6% acetic acid. The drugs were given orally 60 minutes before acetic acid. The frequency of writhing syndrome in the treated animals was compared with that in the nontreated control animals.

Compound: O=C(Nc1ccncc1)NN1CC=CCC1 [Compound A, N-[(4-Pyridylcarbamoyl)amino]-1,2,3,6-tetrahydropyridine]
- Inhibition (%) of carrageenin foot edema [1]: 41.4%
- Inhibition (%) of acetic acid induced writhing [2]: 73.4%

Compound: O=C(Nc1cccnc1)NN1CC=CCC1 [Compound B, N-[(3-Pyridylcarbamoyl)amino]-1,2,3,6-tetrahydropyridine]
- Inhibition (%) of carrageenin foot edema [1]: 45.9%
- Inhibition (%) of acetic acid induced writhing [2]: 95.5%

Compound: O=C(Nc1ccccn1)NN1CC=CCC1 [Compound C, N-[(2-Pyridylcarbamoyl)amino]-1,2,3,6-tetrahydropyridine]
- Inhibition (%) of carrageenin foot edema [1]: 50.9%

Compound: O=C(Nc1ccncn1)NN1CC=CCC1 [Compound D, N-[(4-Pyrimidinylcarbamoyl)amino]-1,2,3,6-tetrahydropyridine]
- Inhibition (%) of carrageenin foot edema [1]: 48.0%
- Inhibition (%) of acetic acid induced writhing [2]: 68.5%

Compound: O=C(Nc1cnccn1)NN1CC=CCC1 [Compound E, N-(Pyrazinylcarbamoylamino)-1,2,3,6-tetrahydropyridine]
- Inhibition (%) of carrageenin foot edema [1]: 54.7%

Compound: O=C(Nc1ccc(Cl)nc1)NN1CC=CCC1 [Compound F, N-[[(2-Chloropyridin-5-yl)carbamoyl]amino]-1,2,3,6-tetrahydropyridine]
- Inhibition (%) of carrageenin foot edema [1]: 49.9%
- Inhibition (%) of acetic acid induced writhing [2]: 75.1%

Compound: O=C(NN1CC=CCC1)NN1CCCC1 [Compound G, N-[(1-Pyrrolidinylcarbamoyl)amino]-1,2,3,6-tetrahydropyridine]
- Inhibition (%) of acetic acid induced writhing [2]: 84.7%

Compound: O=C(NN1CC=CCC1)NN1CC=CCC1 [Compound H, N,N'-[Bis-(1,2,3,6-tetrahydropyridin-1-yl)]urea]
- Inhibition (%) of acetic acid induced writhing [2]: 82.0%
